The source made the active and inactive calls. The rule behind the calls is not given here.
Assays:
[1] = system: Jurkat; assay: Inhibition of anti-CD3 plus anti-CD28-induced IL2 secretion in Jurkat cells; format: functional, Homo sapiens
[2] = system: Jurkat; assay: Inhibition of PMA plus ionomycin-induced IL2 secretion in Jurkat cells; format: functional, cell-based; conditions: Homo sapiens
[3] = system: Jurkat; assay: Cytotoxic activity against Jurkat cells upto 500 ug/mL by MTT assay; format: functional, cell-based; conditions: Homo sapiens

For O=C(/C=C/c1ccc(O)c(O)c1)O[C@@H]1C[C@@](OC(=O)/C=C/c2ccc(O)c(O)c2)(C(=O)O)C[C@@H](O)[C@@H]1O [CYNARIN], the Inhibition [1] was -53%, the Activity [2] was “inactive” and the Activity [3] was “Non-toxic”.
